Values quoted from earlier work as cited in US9221029B2, “Automatic system for synthesizing 123I-MIBG and automatic device for synthesizing and dispensing 123I-MIBG comprising the same” (Institute of Nuclear Energy Research Atomic Energy Council, …, priority 2013, dated 2015).
Read-outs that look alike come from different tables or passages of the source. One block for each compound: values may come before it.

Tests used:
neuroblast = settings: after intravenous injection
neuroblastoma [1] = settings: 21 neuroblastoma patients; especially at bones
[2] = tested on: tumors (neuroblastoma cells); settings: after false-positive and false-negative imaging results are ruled out
[3] = used for diagnosis
[4] = ranging from 15 minutes to 48 hours
neuroblastoma [5] = settings: in vivo
[6] = despite the use of oral potassium iodide (KI)

gathered in neuroblast (neuroblast): 90%
SMILES: N=C(N)NCc1cccc(I)c1 [MIBG, meta-iodobenzylguanidine]
sensitivity of imaging compared with FDG-PET (neuroblastoma [1]): higher sensitivity

patients with accumulated ^123I-MIBG in salivary glands [3]: 92-100%
SMILES: N=C(N)NCc1cccc([123I])c1 [^123I-MIBG, iodine-123 meta-iodobenzylguanidine]
specifically bound to tumors [2]: ~100%

SMILES: N=C(N)NCc1cccc([131I])c1 [^131I-MIBG]
excreted out of the body through urine (24 hours after injection): 57% | excreted out of the body through urine (48 hours after injection): 70% | still exists in the blood (one hour after injection, neuroblastoma patients): ≤ 10% | saliva-to-plasma ratio [4]: greater than 1.0 | treatment effective rate on neuroblastoma (neuroblastoma [5]): 30-40% | side effects of therapy [6]: hypothyroidism still occurs
